Source: US6380181B1, “Synthetic catechol derivatives, method for production and use thereof” (priority 1996, dated 2002)
Converted amounts (≈) assume the structure as drawn.

Experiments:
Format in all cases: cell-based
[1] = system: Salmonella gallinarum ATCC 9184; conditions: concentration 100 μg/ml; Salmonella galinarum ATCC 9184
[2] = system: Pseudomonas aeruginosa ATCC 27853 (wild type); test: Agar diffusion test; conditions: concentration 100 μg/ml; P. aeruginosa ATCC 27853
[3] = system: Pseudomonas aeruginosa NCTC 10701; test: Agar diffusion test; conditions: concentration 100 μg/ml; P. aeruginosa NCTC 10701
[4] = system: Pseudomonas aeruginosa NCTC 10662; test: Microdilution test (MIC); conditions: Pseudomonas aeruginosa, NCTC10662; P. aeruginosa NCTC 10662
Experimental: (§1) The minimum inhibiting concentrations (MICs) were determined for the following bacterial strains: Pseudomonas aeruginosa NCTC 10701, NCTC 10662, SG 137, ATCC 27853, KW 799 WT and KW 799/61, E. coli DCO, DC2 and ATCC 25922, Serratia marcescens SG 621; Salmonella gallinarum ATCC 9184, Klebsiella pneumoniae ATCC 10031 and SG 117.

[5] = system: Serratia marcescens SG 621; test: Microdilution test (MIC)
Experimental: as §1

[6] = system: Klebsiella pneumoniae SG 117; test: Microdilution test (MIC)
Experimental: as §1

[7] = system: E. coli ATCC 25922; test: Microdilution test (MIC)
Experimental: as §1

[8] = system: Pseudomonas aeruginosa NCTC 10701; test: Microdilution test (MIC); conditions: P. aeruginosa NCTC 10701
Experimental: as §1

[9] = system: Pseudomonas aeruginosa ATCC 27853; test: Microdilution test (MIC); conditions: P. aeruginosa ATCC 27853
Experimental: as §1

[10] = system: Pseudomonas aeruginosa SG 137; test: Microdilution test (MIC); conditions: P. aeruginosa SG 137
Experimental: as §1

[11] = system: Klebsiella pneumoniae ATCC 10031; test: Microdilution test (MIC)
Experimental: as §1

[12] = system: Pseudomonas aeruginosa Oxa6 (plasmid-coded β-lactamase); conditions: concentration 100 μg/ml; P. aeruginosa OXA 6
[13] = system: E. coli DC0 (wild type); test: Agar diffusion test; conditions: concentration 100 μg/ml
[14] = system: Klebsiella pneumoniae SG 117; test: Agar diffusion test; conditions: concentration 100 μg/ml
[15] = system: Pseudomonas aeruginosa NCTC 10662; test: Agar diffusion test; conditions: concentration 100 μg/ml; P. aeruginosa NCTC 10662
[16] = system: Pseudomonas aeruginosa ATCC 9027 (wild type); test: Agar diffusion test; conditions: concentration 100 μg/ml; P. aeruginosa ATCC 9027
[17] = system: E. coli DC0; test: Microdilution test (MIC); conditions: Escherichia coli, DC0, read-out: MIC values, microdilution test
Summary of the method: (§2)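 Broth microdilution MIC determination; paired strains (Pseudomonas KW 799 WT vs /61, E. coli DC0 vs DC2) used to assess the effect of improved penetration capacity on compound efficacy.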

[18] = system: Pseudomonas aeruginosa KW 799 WT; test: Microdilution test (MIC); conditions: P. aeruginosa KW 799/WT
Summary of the method: as §2

[19] = system: Pseudomonas aeruginosa KW 799/61; test: Microdilution test (MIC)
Summary of the method: as §2

[20] = system: E. coli mutant PLB3268 ompF++; conditions: E. coli mutant PLB3268 ompF++ (ompF super-expressed)
Description: (§3) The efficacy against β-lactamase formers and against multi-resistant germs is therefore due to a new type of mechanism for overcoming the penetration resistance, by means of which the ratio of active ingredient to enzyme in the bacterial cell is influenced so that not all antibiotic molecules are inactivated before they reach their target.
PLB268: ompF- was super-expressed.

[21] = system: E. coli mutant KB5 ompC−
Description: as §3

[22] = system: E. coli mutant KB4 ompF−
Description: as §3

[23] = system: E. coli DC2 (penetration mutant); conditions: concentration 100 μg/ml
[24] = system: Pseudomonas aeruginosa KW 799 WT (wild type); test: Agar diffusion test; conditions: concentration 100 μg/ml; P. aeruginosa KW799/WT
[25] = system: Salmonella gallinarum ATCC 9184; test: microbe, parasite or virus in culture; conditions: Salmonella gallinarum ATCC9184
Experimental: as §1

[26] = system: Pseudomonas aeruginosa SG 137 (carbenicillin-resistant); test: Agar diffusion test; conditions: concentration 100 μg/ml; P. aeruginosa SG 137
[27] = system: E. coli mutant BR185 tonB−
[28] = system: Pseudomonas aeruginosa KW 799/61 (penetration mutant); conditions: concentration 100 μg/ml; P. aeruginosa KW799/61
[29] = system: E. coli DC2; test: microbe, parasite or virus in culture
Summary of the method: as §2

[30] = system: Stenotrophomonas maltophilia GN 12873; test: Agar diffusion test; conditions: concentration 100 μg/ml
[31] = system: Pseudomonas aeruginosa NPS1 (plasmid-coded β-lactamase); conditions: concentration 100 μg/ml; P. aeruginosa NPS 1
[32] = system: Stenotrophomonas maltophilia IMET 10402; test: Agar diffusion test; conditions: concentration 100 μg/ml
[33] = system: Klebsiella pneumoniae ATCC 10031; test: Agar diffusion test; conditions: concentration 100 μg/ml
[34] = system: Stenotrophomonas maltophilia GN 12873; test: Microdilution test (MIC); conditions: GN12873
[35] = system: E. coli AB2847 tonB+

## CC1(C)S[C@@H]2[C@H](NC(=O)[C@H](NC(=O)N3CCNC3=O)c3ccccc3)C(=O)N2[C@H]1C(=O)O [Azlocillin, reference compound]
[1]
  inhibition spot diameter in the agar diffusion test: 21 mm
[2]
  inhibition spot diameter in the agar diffusion test: 19 mm
[3]
  inhibition spot diameter in the agar diffusion test: 27 mm
[4]
  MIC: 6.25 µg/mL (≈ 13.5 µM)
[5]; SG621
  MIC: 50 µg/mL (≈ 108 µM)
[6]; SG117
  MIC: 6.25 µg/mL (≈ 13.5 µM)
[7]; Escherichia coli, ATCC25922
  MIC: 6.25 µg/mL (≈ 13.5 µM)
[8]; Pseudomonas aeruginosa, NCTC10701
  MIC: 0.2 µg/mL (≈ 0.433 µM)
[9]; Pseudomonas aeruginosa, ATCC27853
  MIC: 6.25 µg/mL (≈ 13.5 µM)
[10]; Pseudomonas aeruginosa, SG137
  MIC: 6.25 µg/mL (≈ 13.5 µM)
[11]; ATCC10031
  MIC: 6.25 µg/mL (≈ 13.5 µM)
[12]
  inhibition spot diameter in the agar diffusion test: 0 mm
[13]
  inhibition spot diameter in the agar diffusion test: 16 mm
[14]
  inhibition spot diameter in the agar diffusion test: 18 mm
[15]
  inhibition spot diameter in the agar diffusion test: 17 mm
[16]
  inhibition spot diameter in the agar diffusion test: 15 mm
[17]
  MIC: 12.5 µg/mL (≈ 27.1 µM)
[18]; Pseudomonas aeruginosa, KW799WT
  MIC: 3.12 µg/mL (≈ 6.76 µM)
[19]; Pseudomonas aeruginosa, KW799/61, P. aeruginosa KW 799/61
  MIC: 0.2 µg/mL (≈ 0.433 µM)
[20]
  inhibition spot diameter in agar diffusion test: 17.5 mm
[21]
  inhibition spot diameter in agar diffusion test: 4 mm
[22]
  inhibition spot diameter in agar diffusion test: 6.5 mm
[23]
  inhibition spot diameter in the agar diffusion test: 33 mm
[24]
  inhibition spot diameter in the agar diffusion test: 27 mm
[25]; Salmonella enterica, read-out: MIC values, microdilution test
  MIC: 3.12 µg/mL (≈ 6.76 µM)
[26]
  inhibition spot diameter in the agar diffusion test: 17 mm
[27]
  inhibition spot diameter in agar diffusion test: 8 mm
[28]
  inhibition spot diameter in the agar diffusion test: 40 mm
[29]; Escherichia coli, read-out: MIC values, microdilution test
  MIC: 0.78 µg/mL (≈ 1.69 µM)
[30]
  inhibition spot diameter in the agar diffusion test: 0 mm
[31]
  inhibition spot diameter in the agar diffusion test: 0 mm
[32]
  inhibition spot diameter in the agar diffusion test: 21 mm
[33]
  inhibition spot diameter in the agar diffusion test: 15 mm
[34]
  MIC: 25 to 100 µg/mL (≈ 54.2 to 217 µM)
[35]
  inhibition spot diameter in agar diffusion test: 8 mm

## CC(=O)Oc1cccc(C(=O)N[C@@H](C)C(=O)N[C@@H](C(=O)N[C@@H]2C(=O)N3[C@@H]2SC(C)(C)[C@@H]3C(=O)O)c2ccccc2)c1OC(C)=O [Substance 27, N-[L-2-(2,3-Diacetoxybenzoylamino)-propionyl]-ampicillin]
[1]
  inhibition spot diameter in the agar diffusion test: 24 mm
[3]
  inhibition spot diameter in the agar diffusion test: 0 mm
[5]
  MIC values, microdilution test: 50 µg/mL (≈ 78 µM)
[6]
  MIC values, microdilution test: 50 µg/mL (≈ 78 µM)
[7]
  MIC values, microdilution test: 6.25 µg/mL (≈ 9.76 µM)
[8]
  MIC values, microdilution test: 0.4 µg/mL (≈ 0.624 µM)
[9]
  MIC values, microdilution test: 6.25 µg/mL (≈ 9.76 µM)
[10]
  MIC values, microdilution test: 3.12 µg/mL (≈ 4.87 µM)
[11]
  MIC values, microdilution test: 0.4 µg/mL (≈ 0.624 µM)
[12]
  inhibition spot diameter in the agar diffusion test: 12 mm
[13]
  inhibition spot diameter in the agar diffusion test: 21 mm
[14]
  inhibition spot diameter in the agar diffusion test: 17 mm
[15]
  inhibition spot diameter in the agar diffusion test: 16 mm
[16]
  inhibition spot diameter in the agar diffusion test: 19 mm
[18]
  MIC values, microdilution test: 0.78 µg/mL (≈ 1.22 µM)
[19]
  MIC values, microdilution test: 0.2 µg/mL (≈ 0.312 µM)
[20]
  inhibition spot diameter in agar diffusion test: 14 mm
[21]
  inhibition spot diameter in agar diffusion test: 7.5 mm
[22]
  inhibition spot diameter in agar diffusion test: 8.5 mm
[23]
  inhibition spot diameter in the agar diffusion test: 30 mm
[24]
  inhibition spot diameter in the agar diffusion test: 30 mm
[25]
  MIC values, microdilution test: 1.56 µg/mL (≈ 2.43 µM)
[26]
  inhibition spot diameter in the agar diffusion test: 22 mm
[27]
  inhibition spot diameter in agar diffusion test: 1 mm
[28]
  inhibition spot diameter in the agar diffusion test: 37 mm
[29]
  MIC values, microdilution test: 0.4 µg/mL (≈ 0.624 µM)
[30]
  inhibition spot diameter in the agar diffusion test: 22 mm
[31]
  inhibition spot diameter in the agar diffusion test: 10 mm
[32]
  inhibition spot diameter in the agar diffusion test: 29 mm
[35]
  inhibition spot diameter in agar diffusion test: 7 mm

## CC(=O)Oc1cccc(C(=O)Nc2ccccc2C(=O)N[C@@H](C(=O)N[C@@H]2C(=O)N3[C@@H]2SC(C)(C)[C@@H]3C(=O)O)c2ccccc2)c1OC(C)=O [Substance 28, N-[2-(2,3-Diacetoxybenzoylamino)-benzoyl]-ampicillin]
[5]
  MIC values, microdilution test: 6.25 µg/mL (≈ 9.07 µM)
[6]
  MIC values, microdilution test: 25 µg/mL (≈ 36.3 µM)
[8]
  MIC values, microdilution test: 0.78 µg/mL (≈ 1.13 µM)
[10]
  MIC values, microdilution test: 1.56 µg/mL (≈ 2.27 µM)
[12]
  inhibition spot diameter in the agar diffusion test: 19 mm
[13]
  inhibition spot diameter in the agar diffusion test: 23 mm
[14]
  inhibition spot diameter in the agar diffusion test: 17 mm
[15]
  inhibition spot diameter in the agar diffusion test: 17 mm
[16]
  inhibition spot diameter in the agar diffusion test: 18 mm
[18]
  MIC values, microdilution test: 1.56 µg/mL (≈ 2.27 µM)
[19]
  MIC values, microdilution test: 0.4 µg/mL (≈ 0.581 µM)
[20]
  inhibition spot diameter in agar diffusion test: 13 mm
[21]
  inhibition spot diameter in agar diffusion test: 11 mm
[22]
  inhibition spot diameter in agar diffusion test: 11.5 mm
[23]
  inhibition spot diameter in the agar diffusion test: 27 mm
[24]
  inhibition spot diameter in the agar diffusion test: 27 mm
[25]
  MIC values, microdilution test: 1.56 µg/mL (≈ 2.27 µM)
[26]
  inhibition spot diameter in the agar diffusion test: 20 mm
[27]
  inhibition spot diameter in agar diffusion test: 0 mm
[28]
  inhibition spot diameter in the agar diffusion test: 31 mm
[29]
  MIC values, microdilution test: 0.4 µg/mL (≈ 0.581 µM)
[30]
  inhibition spot diameter in the agar diffusion test: 20 mm
[31]
  inhibition spot diameter in the agar diffusion test: 18 mm
[32]
  inhibition spot diameter in the agar diffusion test: 24 mm
[35]
  inhibition spot diameter in agar diffusion test: 8.5 mm
